The target in the assay is T1, SIRT1 (Homo sapiens, UniProt Q96EB6).
T1 construct: recombinant SIRT1
T1 sequence (Q96EB6 2-747): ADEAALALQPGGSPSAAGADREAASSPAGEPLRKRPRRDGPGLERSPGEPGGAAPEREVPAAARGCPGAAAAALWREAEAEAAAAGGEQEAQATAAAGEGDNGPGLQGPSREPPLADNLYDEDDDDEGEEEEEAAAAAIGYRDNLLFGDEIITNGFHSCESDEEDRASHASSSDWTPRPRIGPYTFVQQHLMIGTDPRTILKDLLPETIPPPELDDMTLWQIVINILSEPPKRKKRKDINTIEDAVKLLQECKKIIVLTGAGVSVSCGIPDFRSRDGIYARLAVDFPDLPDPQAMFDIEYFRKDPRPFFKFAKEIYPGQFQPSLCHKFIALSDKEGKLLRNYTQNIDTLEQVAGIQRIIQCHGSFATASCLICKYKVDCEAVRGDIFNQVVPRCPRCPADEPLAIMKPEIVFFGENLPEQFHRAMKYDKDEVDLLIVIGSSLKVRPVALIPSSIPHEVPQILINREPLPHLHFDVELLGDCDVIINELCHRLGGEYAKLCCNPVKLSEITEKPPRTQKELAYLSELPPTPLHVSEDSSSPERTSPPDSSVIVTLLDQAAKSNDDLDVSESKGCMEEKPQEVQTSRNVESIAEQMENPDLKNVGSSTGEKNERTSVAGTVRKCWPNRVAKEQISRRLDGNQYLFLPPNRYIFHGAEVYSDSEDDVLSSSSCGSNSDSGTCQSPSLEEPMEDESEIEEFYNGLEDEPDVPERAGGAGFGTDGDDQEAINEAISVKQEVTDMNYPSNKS
The experiment in a line: in vitro deacetylase assay with recombinant enzyme and [3H] acetylated histone H4 peptide. The assay is classed as biochemical.

In the case of `O=C1CCc2ccccc2O1` [DHC, dihydrocoumarin], the IC50 was determined as 208 µM.

These data come from article PMC1315280, “The Flavoring Agent Dihydrocoumarin Reverses Epigenetic Silencing and Inhibits Sirtuin Deacetylases” (PLoS Genetics, 2005).
